What was measured:
[1] = Pharmacokinetic study, plasma concentration after i.p. injection; format: in vivo; settings: Albino Swiss, ip, mouse, 10 mg/kg i.p.; for Tmax: 10 mg/kg
Procedure: (§1) The mice were then perfused with 0.1M PBS to remove remaining blood from the body, and the brains were taken out for the analysis. Blood was centrifuged at 2000 rpm for 10 min at 4°C, and the plasma was collected and frozen at -80°C for further analysis.
(§2) Plasma and tissue samples from all drug-treated animals were thawed at room temperature prior to use. Standard protocol of sample preparation: 200 μl acetonitrile was added to the eppendorfs with 50 μl of studied plasma samples or tissue homogenate. Samples were mixed for 5 min on a mixer at 25°C and 1400 rpm. Tubes were then centrifuged at 2000 × g for 15 min at 4°C. About 180 μl of each supernatant was transferred into a plate well. Finally, each sample was injected into the column.
(§3) In calibration curve – serial dilution method, plasma was spiked with standard at different concentration levels. Acetonitrile was added. Mixed, centrifuged supernatant was taken.
(§4) Plasma and tissue samples from all drug-treated animals at selected time points are analyzed using previously developed a non-validated liquid chromatography-tandem mass spectrometry (LC-MS)/MS method.
(§5) LC/MS analysis was carried on a Bruker amaZon SL mass spectrometer using positive/ negative ion ESI mode. Chromatographic separation was achieved on a Ascentis Express C18 column, (5 cm × 2.1 mm, […], Supelco Technologies) at room temperature with a thermostatted column oven. A gradient elution of eluents A [acetonitrile (LiChrosolv, Reag. Ph Eur) +0.1% formic acid (Sigma–Aldrich, 98–100%)] and B (water +0.1% formic acid) was used for separation. The flow rate was set at 1 ml/min. The injection volume was 20 μl, and the time of injection was 4 min.
(§6) An Ion trap mass spectrometer (Bruker amaZon SL) was equipped with an electrospray source, operating in the positive/negative ion mode. Data were collected and processes using Bruker Quant Analysis software. Quantification of analytes was performed in SIM mode.

[2] = Pharmacokinetic study, brain concentration after i.p. injection; format: in vivo, mouse (Albino Swiss); settings: mouse; for AUC / Cmax / Tmax / half-life: Albino Swiss, ip, brain, 10 mg/kg i.p.
Procedure: as §1, §2, §3, §4, §5, §6

[3] = Metabolic stability (microsomes, mice); format: in vitro ADME; settings: for microsomal CLint: mouse, liver microsomes
Cytochrome P450 1A2 = biological target: T1, Cytochrome P450 1A2 (Homo sapiens, UniProt P05177); test: Cytochrome P450 inhibition, 1A2; format: in vitro ADME
T1 sequence (P05177 1-516): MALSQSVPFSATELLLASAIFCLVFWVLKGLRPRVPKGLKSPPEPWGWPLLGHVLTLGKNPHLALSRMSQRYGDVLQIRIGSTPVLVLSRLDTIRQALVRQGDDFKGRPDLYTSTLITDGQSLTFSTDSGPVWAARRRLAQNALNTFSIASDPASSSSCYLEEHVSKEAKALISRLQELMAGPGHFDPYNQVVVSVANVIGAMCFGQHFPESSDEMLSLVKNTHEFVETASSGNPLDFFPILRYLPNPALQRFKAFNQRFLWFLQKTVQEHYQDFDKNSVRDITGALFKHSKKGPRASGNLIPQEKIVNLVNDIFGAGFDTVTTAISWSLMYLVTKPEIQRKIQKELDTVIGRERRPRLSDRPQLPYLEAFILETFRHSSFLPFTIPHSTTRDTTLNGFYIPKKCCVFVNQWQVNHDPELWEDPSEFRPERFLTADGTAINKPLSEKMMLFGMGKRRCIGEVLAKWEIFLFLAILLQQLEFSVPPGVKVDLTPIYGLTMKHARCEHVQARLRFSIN

Cytochrome P450 2B6 = biological target: T2, Cytochrome P450 2B6 (Homo sapiens, UniProt P20813); test: Cytochrome P450 inhibition, 2B6; format: in vitro ADME
T2 sequence (P20813 1-491): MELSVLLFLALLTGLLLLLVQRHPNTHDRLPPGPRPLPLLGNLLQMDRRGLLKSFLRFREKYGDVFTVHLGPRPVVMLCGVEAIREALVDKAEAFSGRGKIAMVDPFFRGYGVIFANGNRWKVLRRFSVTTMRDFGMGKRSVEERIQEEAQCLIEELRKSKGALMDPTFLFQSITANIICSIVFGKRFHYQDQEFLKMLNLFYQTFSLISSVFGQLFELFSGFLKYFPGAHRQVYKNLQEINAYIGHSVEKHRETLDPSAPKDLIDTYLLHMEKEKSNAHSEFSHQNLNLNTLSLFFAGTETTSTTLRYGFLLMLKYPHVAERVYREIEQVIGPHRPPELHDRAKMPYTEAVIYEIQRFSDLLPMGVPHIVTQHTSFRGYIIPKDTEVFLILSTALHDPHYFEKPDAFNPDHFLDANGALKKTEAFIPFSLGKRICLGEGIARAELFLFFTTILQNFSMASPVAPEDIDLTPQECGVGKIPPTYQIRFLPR

[4] = system: MK-801-induced social interaction deficits; test: Social interaction test (MK-801-induced deficits); format: in vivo, Albino Swiss mice; settings: 30 min before MK-801 (0.3 mg/kg), mice
Procedure: The method was adapted from [de Moura Linck et al., 2008] and [Woźniak et al., 2016b]. After the 2-day habituation trial (10 min/day) a pair of mice was placed in the open field for 5 min. The social interactions between two mice were determined based on the total time spent participating in social behavior such as genital investigation, sniffing, chasing, and fighting each other. The total number of social episodes was also measured. The test was video-recorded and viewed by a trained observer.

[5] = system: prepulse-induced inhibition of the acoustic startle response; test: Prepulse inhibition of the acoustic startle response; format: in vivo, Wistar rats; settings: rats; for Effect on MK-801-induced disruption of prepulse inhibition: 30 min prior to MK-801 (0.3 mg/kg)
Procedure: The procedure was performed according to [Czyrak et al., 2003]. On the day before the experiment, the animals were subjected to a single startle session consisting of two trials, each presented 20 times during the session. During the first trial, a 120 dB, 40 ms pulse was presented, and on the second trial this pulse was preceded by a 75 dB, 20 ms prepulse. On the day of the experiment, the animals were habituated to the background white noise (65 dB) for 5 min (which continued throughout the test), after that the startle session was carried out as described above. Startle response amplitude was defined as the difference between the maximum force detected during a recording window and the force measured immediately before the stimulus onset (the threshold was set at 10 g). For each animal, the amplitudes were averaged separately for each type of trial. The PPI was calculated as the difference between the amplitudes of the pulse (P) and the prepulse + pulse (PP+P), divided by the amplitude of the pulse alone [([P - (PP + P)]/P)×100].

Row | Structure (SMILES) | AUC [1] | Cmax [1] | half-life [1] | Tmax [1] | Concentration in brain ([2]; 0,5 h after 10 mg/kg i.p.) | Concentration in brain ([2]; 0,25 h after 10 mg/kg i.p.) | Concentration in brain ([2]; 1 h after 10 mg/kg i.p.) | Concentration in brain ([2]; 2 h after 10 mg/kg i.p.) | AUC [2] | Cmax [2] | Tmax [2] | half-life [2] | Metabolic stability (microsomes, mice) [3] | microsomal CLint [3] | IC50 (Cytochrome P450 1A2) | IC50 (Cytochrome P450 2B6) | further results
1 | CCc1nc2c(o1)CC(c1ccc(C)cc1C)CC2=O (centres unmarked) [ADX71743, 6-(2,4-Dimethylphenyl)-2-ethyl-6,7-dihydro-4(5H)-benzoxazolone] | 1.9 µM·h | 3.73 µM | 54 min | 15 min | 2,09 μM | 3,38 μM | 0,79 μM | 0,09 μM | 2.27 µM·h | 3.38 µM | 15 min | 20.4 min | 0.01 | 500 µL/min/mg | > 10 µM | > 10 µM | Effect on MK-801-induced reduction of duration of social interaction ([4]; 5 mg/kg i.p.): reversed the effect of MK-801; Effect on MK-801-induced reduction of number of social episodes ([4]; 5 mg/kg i.p.): reversed the effect of MK-801; Effect on MK-801-induced reduction of duration of social interaction ([4]; 15 mg/kg i.p.): reversed the effect of MK-801; Effect on MK-801-induced reduction of number of social episodes ([4]; 15 mg/kg i.p.): reversed the effect of MK-801; Effect on MK-801-induced disruption of prepulse inhibition ([5]; 2.5 mg/kg): inhibited MK-801-induced disruption in PPI
2 | COc1ccc(-c2cc3onc(-c4ccncc4)c3c(=O)n2C)cc1 [MMPIP, 6-(4-Methoxyphenyl)-5-methyl-3-(4-pyridinyl)-isoxazolo(4,5-c)pyridin-4(5H)-one] | 13.5 µM·h | 9.85 µM | 69.6 min | 30 min | 5,42 μM | 3,63 μM | 2,44 μM | 1,79 μM | 8.98 µM·h | 5.42 µM | 30 min | 105 min | 49.78 | 38.7 µL/min/mg | > 10 µM | > 10 µM | Effect on MK-801-induced reduction of number of social episodes ([4]; 5, 10, and 20 mg/kg i.p.): no effect; Effect on MK-801-induced reduction of time of interaction ([4]; 5, 10, and 20 mg/kg i.p.): no effect; Prepulse-induced inhibition of the acoustic startle response, drug given alone ([5]; 10 mg/kg given alone, effect not statistically significant): 137 % of control; Effect on MK-801-induced disruption of prepulse inhibition ([5]; all doses (5, 10, and 15 mg/kg)): not antagonized

From paper PMC6158327, “Negative Allosteric Modulators of mGlu7 Receptor as Putative Antipsychotic Drugs” (Frontiers in Molecular Neuroscience, 2018)
